Source: patent US8232269B2, “Amide compounds useful in therapy” (Pfizer Inc., priority 2008, dated 2012)

molecular target: T1, Progesterone Receptor (PR) (Homo sapiens, UniProt P06401); assay: In vitro functional assay for progesterone receptor (PR) antagonists: inhibition of progesterone-induced alkaline phosphatase expression in T47D cells; format: cell-based; settings: antagonist format, 5 nM progesterone, Ki calculated from IC50 with the Cheng-Prusoff equation
T1 construct: endogenous in cells; host or cells: T47D human breast mammary carcinoma cells
T1 sequence (P06401 1-933): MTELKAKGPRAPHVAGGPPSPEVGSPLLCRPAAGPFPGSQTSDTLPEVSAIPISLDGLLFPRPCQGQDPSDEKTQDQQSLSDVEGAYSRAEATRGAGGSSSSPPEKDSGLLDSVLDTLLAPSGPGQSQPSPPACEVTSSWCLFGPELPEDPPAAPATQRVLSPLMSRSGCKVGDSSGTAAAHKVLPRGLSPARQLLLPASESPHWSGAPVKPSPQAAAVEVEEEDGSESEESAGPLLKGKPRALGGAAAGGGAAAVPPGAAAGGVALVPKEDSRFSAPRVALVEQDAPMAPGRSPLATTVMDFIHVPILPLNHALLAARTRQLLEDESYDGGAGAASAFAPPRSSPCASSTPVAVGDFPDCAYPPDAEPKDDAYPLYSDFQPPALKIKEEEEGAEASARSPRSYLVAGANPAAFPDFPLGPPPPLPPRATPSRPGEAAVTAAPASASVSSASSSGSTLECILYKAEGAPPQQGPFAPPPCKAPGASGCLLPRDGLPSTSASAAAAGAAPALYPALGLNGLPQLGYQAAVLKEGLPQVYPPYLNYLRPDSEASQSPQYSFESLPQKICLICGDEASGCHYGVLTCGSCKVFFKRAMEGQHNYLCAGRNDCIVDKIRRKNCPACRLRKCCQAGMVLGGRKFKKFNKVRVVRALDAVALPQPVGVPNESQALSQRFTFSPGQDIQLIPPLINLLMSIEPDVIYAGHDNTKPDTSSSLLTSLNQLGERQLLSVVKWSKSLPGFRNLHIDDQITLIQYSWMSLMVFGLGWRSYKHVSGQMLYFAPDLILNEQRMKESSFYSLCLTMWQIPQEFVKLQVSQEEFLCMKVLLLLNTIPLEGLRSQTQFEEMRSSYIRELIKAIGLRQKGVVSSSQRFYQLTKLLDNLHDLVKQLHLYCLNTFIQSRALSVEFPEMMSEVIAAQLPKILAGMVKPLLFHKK
Procedure, shortened: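 Antagonist format: T47D cells (8750/well, phenol red-free DMEM + 5% CS-FCS) given half-log compound dilutions plus 5 nM progesterone (final), incubated overnight (≥16 h) at 37 °C. Alkaline phosphatase read by CSPD chemiluminescence after freeze-thaw lysis; 0.1 μM RU-486 final defines minimum.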

Compared with `CC(C)n1nc(-c2ccc(C#N)cc2)c(C2CC2)c1C(=O)NCC(C)(C)C` [Example 34, 3-(4-Cyanophenyl)-4-cyclopropyl-N-(2,2-dimethylpropyl)-1-isopropyl-1H-pyrazole-5-carboxamide], `CC(C)n1nc(-c2ccc(C#N)cc2)c(C2CC2)c1C(=O)NC(C)(C)C` [Example 60, N-tert-Butyl-3-(4-cyanophenyl)-4-cyclopropyl-1-isopropyl-1H-pyrazole-5-carboxamide] is 2.2-fold higher in Ki: 18.9 nM for the first, 42.1 nM for the second. The first binds more tightly here.

Compared with `CC[C@@H](C)NC(=O)c1c(C2CC2)c(-c2ccc(C#N)cc2)nn1C(C)C` [Example 35, 3-(4-Cyanophenyl)-4-cyclopropyl-1-isopropyl-N-[(1R)-1-methylpropyl]-1H-pyrazole-5-carboxamide], `CNC(=O)c1c(C2CC2)c(-c2ccc(C#N)cc2)nn1C(C)C` [Example 46, 3-(4-Cyanophenyl)-4-cyclopropyl-1-isopropyl-N-methyl-1H-pyrazole-5-carboxamide] is higher in Ki: 11.2 nM for the first, > 2010 nM for the second.

Going from `CCNC(=O)CNC(=O)c1c(C2CC2)c(-c2ccc(C#N)cc2)nn1C(C)C` [Example 42, 3-(4-Cyanophenyl)-4-cyclopropyl-N-[2-(ethylamino)-2-oxoethyl]-1-isopropyl-1H-pyrazole-5-carboxamide] to `CC(=O)CNC(=O)c1c(C2CC2)c(-c2ccc(C#N)cc2)nn1C(C)C` [Example 61, 3-(4-Cyanophenyl)-4-cyclopropyl-1-isopropyl-N-(2-oxopropyl)-1H-pyrazole-5-carboxamide], the Ki falls from 27.3 nM to 8.29 nM (3.3-fold).

Going from `CC(C)n1nc(-c2ccc(C#N)cc2)c(C2CC2)c1C(=O)NC1CCOCC1` [Example 43] to `CC(C)n1nc(-c2ccc(C#N)cc2)c(C2CC2)c1C(=O)NC1CCOC1` (centres unmarked) [Example 52, 3-(4-Cyanophenyl)-4-cyclopropyl-1-isopropyl-N-(tetrahydrofuran-3-yl)-1H-pyrazole-5-carboxamide], the Ki falls from 26 nM to 5.7 nM (4.6-fold).

`CC(C)n1nc(-c2ccc(C#N)cc2)c(C2CC2)c1C(=O)NCC(F)(F)F` [Example 48, 3-(4-Cyanophenyl)-4-cyclopropyl-1-isopropyl-N-(2,2,2-trifluoroethyl)-1H-pyrazole-5-carboxamide] and `CC(C)n1nc(-c2ccc(C#N)cc2)c(C2CC2)c1C(=O)NCC1CC1` [Example 49, 3-(4-Cyanophenyl)-4-cyclopropyl-N-(cyclopropylmethyl)-1-isopropyl-1H-pyrazole-5-carboxamide] are within 1.5-fold of each other in Ki: 5.27 nM for the first, 4.94 nM for the second.

First: CC(C)n1nc(-c2ccc(C#N)cc2)c(C2CC2)c1C(=O)NC1CCC1 [Example 50, 3-(4-Cyanophenyl)-N-cyclobutyl-4-cyclopropyl-1-isopropyl-1H-pyrazole-5-carboxamide]
Second: CC(C)n1nc(-c2ccc(C#N)cc2)c(C2CC2)c1C(=O)NC1CC1 [Example 58, 3-(4-Cyanophenyl)-N,4-dicyclopropyl-1-isopropyl-1H-pyrazole-5-carboxamide]
The Ki of the first is 1.9-fold lower: 3.59 nM for the first, 6.87 nM for the second. The first binds more tightly here.

Compared with `CC(C)n1nc(-c2ccc(C#N)cc2)c(C2CC2)c1C(=O)N(C)CC1CC1` [Example 51, 3-(4-Cyanophenyl)-4-cyclopropyl-N-(cyclopropylmethyl)-1-isopropyl-N-methyl-1H-pyrazole-5-carboxamide], `CC(C)n1nc(-c2ccc(C#N)cc2)c(C2CC2)c1C(=O)NCCC1CC1` [Example 54, 3-(4-Cyanophenyl)-4-cyclopropyl-N-(2-cyclopropylethyl)-1-isopropyl-1H-pyrazole-5-carboxamide] is 1.8-fold higher in Ki: 4.65 nM for the first, 8.45 nM for the second. The first binds more tightly here.

Compared with `CC(C)n1nc(-c2ccc(C#N)cc2)c(C2CC2)c1C(=O)NC[C@H]1CCCO1` [Example 53, 3-(4-Cyanophenyl)-4-cyclopropyl-1-isopropyl-N-[(2R)-tetrahydrofuran-2-ylmethyl]-1H-pyrazole-5-carboxamide], `CC(C)n1nc(-c2ccc(C#N)cc2)c(C2CC2)c1C(=O)NC[C@@H]1CCCO1` [Example 55, 3-(4-Cyanophenyl)-4-cyclopropyl-1-isopropyl-N-[(2S)-tetrahydrofuran-2-ylmethyl]-1H-pyrazole-5-carboxamide] is 1.9-fold higher in Ki: 7.38 nM for the first, 13.8 nM for the second. The first binds more tightly here.

Compared with `CC(C)n1nc(-c2ccc(C#N)cc2)c(C2CC2)c1C(=O)NC(C)(C)CO` [Example 56, 3-(4-Cyanophenyl)-4-cyclopropyl-N-(2-hydroxy-1,1-dimethylethyl)-1-isopropyl-1H-pyrazole-5-carboxamide], `COCCNC(=O)c1c(C2CC2)c(-c2ccc(C#N)cc2)nn1C(C)C` [Example 59, 3-(4-Cyanophenyl)-4-cyclopropyl-1-isopropyl-N-(2-methoxyethyl)-1H-pyrazole-5-carboxamide] is 11-fold lower in Ki: 82.6 nM for the first, 7.84 nM for the second.

`Cc1cc(-c2nn(C(C)C)c(C(=O)NCC3CC3)c2C)ccc1C#N` [Example 62, 3-(4-Cyano-3-methylphenyl)-N-(cyclopropylmethyl)-1-isopropyl-4-methyl-1H-pyrazole-5-carboxamide] and `Cc1cc(-c2nn(C(C)C)c(C(=O)NC3CC3)c2C)ccc1C#N` [Example 67, 3-(4-Cyano-3-methylphenyl)-N-cyclopropyl-1-isopropyl-4-methyl-1H-pyrazole-5-carboxamide] are within 1.5-fold of each other in Ki: 3.09 nM for the first, 4.4 nM for the second.

Compared with `Cc1cc(-c2nn(C(C)C)c(C(=O)NC[C@H](C)O)c2C)ccc1C#N` [Example 63, 3-(4-Cyano-3-methylphenyl)-N-[(2S)-2-hydroxypropyl]-1-isopropyl-4-methyl-1H-pyrazole-5-carboxamide], `Cc1cc(-c2nn(C(C)C)c(C(=O)NC[C@@H](C)O)c2C)ccc1C#N` [Example 64, 3-(4-Cyano-3-methylphenyl)-N-[(2R)-2-hydroxypropyl]-1-isopropyl-4-methyl-1H-pyrazole-5-carboxamide] is 1.7-fold higher in Ki: 6.24 nM for the first, 10.9 nM for the second.

Going from `CCNC(=O)c1c(C)c(-c2ccc(C#N)c(C)c2)nn1C(C)C` [Example 65, 3-(4-Cyano-3-methylphenyl)-N-ethyl-1-isopropyl-4-methyl-1H-pyrazole-5-carboxamide] to `Cc1cc(-c2nn(C(C)C)c(C(=O)NCC(C)(C)O)c2C)ccc1C#N` [Example 68, 3-(4-Cyano-3-methylphenyl)-N-(2-hydroxy-2-methylpropyl)-1-isopropyl-4-methyl-1H-pyrazole-5-carboxamide], the Ki rises from 3.55 nM to 6.38 nM (1.8-fold). The first binds more tightly here.

Compared with `Cc1cc(-c2nn(C(C)C)c(C(=O)NC(C)C)c2C)ccc1C#N` [Example 66, 3-(4-Cyano-3-methylphenyl)-N,1-diisopropyl-4-methyl-1H-pyrazole-5-carboxamide], `CNC(=O)c1c(C)c(-c2ccc(C#N)cc2)nn1C1CCC1` [Example 70, 3-(4-Cyanophenyl)-1-cyclobutyl-N,4-dimethyl-1H-pyrazole-5-carboxamide] is 1.5-fold higher in Ki: 3.56 nM for the first, 5.51 nM for the second.

Going from `Cc1c(-c2ccc(C#N)cc2)nn(C2CCC2)c1C(=O)NCC1CC1` [Example 69, 3-(4-Cyanophenyl)-1-cyclobutyl-N-(cyclopropylmethyl)-4-methyl-1H-pyrazole-5-carboxamide] to `Cc1c(-c2ccc(C#N)cc2)nn(C2CC2)c1C(=O)NCC1CC1` [Example 82, 3-(4-Cyanophenyl)-1-cyclopropyl-N-(cyclopropylmethyl)-4-methyl-1H-pyrazole-5-carboxamide], the Ki rises from 3.4 nM to 70.2 nM (21-fold).

First: Cc1c(-c2ccc(C#N)cc2)nn(C2CCC2)c1C(=O)NC1CC1 [Example 71, 3-(4-Cyanophenyl)-1-cyclobutyl-N-cyclopropyl-4-methyl-1H-pyrazole-5-carboxamide]
Second: Cc1c(-c2ccc(C#N)cc2)nn(C2CC2)c1C(=O)NC1CC1 [Example 84, 3-(4-Cyanophenyl)-N,1-dicyclopropyl-4-methyl-1H-pyrazole-5-carboxamide]
The Ki of the first is 15-fold lower: 8.25 nM for the first, 125 nM for the second.

Compared with `Cc1c(-c2ccc(C#N)cc2)nn(C2CCC2)c1C(=O)NC[C@H](C)O` [Example 72, 3-(4-Cyanophenyl)-1-cyclobutyl-N-[(2S)-2-hydroxypropyl]-4-methyl-1H-pyrazole-5-carboxamide], `Cc1c(-c2ccc(C#N)cc2)nn(C2CCC2)c1C(=O)NC[C@@H](C)O` [Example 73, 3-(4-Cyanophenyl)-1-cyclobutyl-N-[(2R)-2-hydroxypropyl]-4-methyl-1H-pyrazole-5-carboxamide] is 2.2-fold higher in Ki: 13.3 nM for the first, 29.1 nM for the second.

Compared with `Cc1c(-c2ccc(C#N)cc2)nn(C2CCC2)c1C(=O)NCC(C)(C)O` [Example 74, 3-(4-Cyanophenyl)-1-cyclobutyl-N-(2-hydroxy-2-methylpropyl)-4-methyl-1H-pyrazole-5-carboxamide], `CCNC(=O)c1c(C)c(-c2ccc(C#N)cc2)nn1C1CC1` [Example 83, 3-(4-Cyanophenyl)-1-cyclopropyl-N-ethyl-4-methyl-1H-pyrazole-5-carboxamide] is 5.2-fold higher in Ki: 18.5 nM for the first, 96.5 nM for the second. The first binds more tightly here.

Molecule `CNC(=O)c1c(C)c(-c2ccc(C#N)cc2)nn1C1CC1` [Example 81, 3-(4-Cyanophenyl)-1-cyclopropyl-N,4-dimethyl-1H-pyrazole-5-carboxamide] has a Ki of 61.2 nM.
